Test results published in publication PMC5849061 (European journal of medicinal chemistry, 2018).
In brackets after ≈: the same amount, converted by molar mass.

What was measured:
[1] = system: human colorectal cells (HRT-18); experiment: Cytotoxicity against human colorectal; details: HRT-18 cells, two hours, MTS; tested 16, 32, 64 μg/mL
[2] = system: MRSA USA400; experiment: Time-kill assay against MRSA USA400; details: 4 × MIC; for kill kinetics (in words): MRSA USA400
[3] = system: MRSA USA400 inside infected macrophage (J774) cells; experiment: Clearance of intracellular MRSA in infected J774 macrophages; format: cell-based, Staphylococcus aureus; details: 24 hours
[4] = system: murine macrophage (J774) cells; experiment: Cytotoxicity against J774 macrophage cells; format: cell-based; details: 24-hour incubation, MTS, tested 8, 16, 32 μg/mL
[5] = system: Caco-2 cells; experiment: Caco-2 bidirectional permeability assay; format: in vitro ADME, human
[6] = target: T1, human FPPS (HsFPPS) (Homo sapiens, UniProt P14324); experiment: Human FPPS inhibition; format: biochemical; details: data not shown
T1 sequence (P14324 1-419): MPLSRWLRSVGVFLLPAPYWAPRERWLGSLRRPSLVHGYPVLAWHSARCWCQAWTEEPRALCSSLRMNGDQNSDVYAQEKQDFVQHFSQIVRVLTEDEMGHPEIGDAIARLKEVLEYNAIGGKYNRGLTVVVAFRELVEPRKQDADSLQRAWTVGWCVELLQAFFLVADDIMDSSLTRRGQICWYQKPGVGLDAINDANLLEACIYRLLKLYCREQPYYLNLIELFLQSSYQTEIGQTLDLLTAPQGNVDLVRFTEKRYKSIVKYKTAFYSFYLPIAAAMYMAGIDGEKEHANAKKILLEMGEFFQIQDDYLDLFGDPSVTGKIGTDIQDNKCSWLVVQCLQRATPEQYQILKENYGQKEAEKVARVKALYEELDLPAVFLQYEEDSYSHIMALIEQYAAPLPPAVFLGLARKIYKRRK

[7] = Metabolic stability in pooled human liver microsomes; format: in vitro ADME; details: for Notes (metabolic stability classification): HLM
[8] = In vivo pharmacokinetics in rat, single IV bolus; set-up: species or system Sprague-Dawley rats; details: male, Sprague-Dawley, plasma, 2 μM solution, t1/2, rat, two-compartment model
[9] = system: PMF in E. coli inverted membrane vesicles (IMVs); experiment: IMV protonophore uncoupler assay
[10] = system: MRSA USA300; experiment: Time-kill assay against MRSA USA300; details: 4 × MIC
[11] = system: VRS11a (VRSA); experiment: Broth microdilution MIC/MBC against VRS11a; format: cell-based; details: Staphylococcus aureus
[12] = human, pooled human liver microsomes, pH 7.4

## C/C(=N\NC(=N)N)c1sc(-c2ccc(C#Cc3ccccc3)cc2)nc1C [Compound 5]
[1]
  non-toxic up to (concentration): 32 µg/mL
[2]
  kill kinetics (in words): bacteriostatic

## C/C(=N\NC(=N)N)c1sc(-c2ccc(C#CC3CCCCC3)cc2)nc1C [Compound 6, 2-(1-(2-(4-(Cyclohexylethynyl)phenyl)-4-methylthiazol-5-yl)ethylidene)hydrazine-1-carboximidamide]
[1]
  non-toxic up to (concentration): 32 µg/mL
[3]; 16 μg/mL
  reduction of the burden of intracellular MRSA: neither the alicyclic-containing derivatives 6, 7 or 9 (4 × MIC) nor vancomycin (4 × MIC) were able to produce a significant reduction

## C/C(=N\NC(=N)N)c1sc(-c2ccc(C#CC3CCCC3)cc2)nc1C [Compound 7, 2-{1-[2-(4-(Cyclopentylethynyl)phenyl)-4-methylthiazol-5-yl]ethylidene} hydrazine-1-carboximidamide]
[1]
  non-toxic up to (concentration): 32 µg/mL
[4]
  non-toxic to macrophage cells up to a concentration of: 8 µg/mL
[2]; 8 hours, re-growth thereafter
  reduction in MRSA CFU/mL after 8 hours: ~3 log10
[3]; 8 μg/mL (4 × MIC)
  reduction of the burden of intracellular MRSA: neither the alicyclic-containing derivatives 6, 7 or 9 (4 × MIC) nor vancomycin (4 × MIC) were able to produce a significant reduction

## C/C(=N\NC(=N)N)c1sc(-c2ccc(C#CC3CC3)cc2)nc1C [Compound 9, 2-(1-(2-(4-(Cyclopropylethynyl)phenyl)-4-methylthiazol-5-yl)ethylidene) hydrazine-1-carboximidamide]
[1]
  non-toxic up to (concentration): 32 µg/mL
[5]
  Notes (permeability classification): Low permeability
[6]
  inhibition of HsFPPS: no inhibition
[7]
  Notes (metabolic stability classification): Stable to metabolism
[7]; [12]
  half-life at 0.1 μM: 4.8 h
  microsomal CLint at 0.1 μM: < 116 µL/min/mg
[8]
  half-life: ~4.5 h
[4]
  non-toxic to macrophage cells up to a concentration of: 8 µg/mL
[2]
  time to complete eradication of MRSA USA400: 24 h
  kill kinetics (in words): slow bactericidal activity
[3]; 8 μg/mL (4 × MIC)
  reduction of the burden of intracellular MRSA: neither the alicyclic-containing derivatives 6, 7 or 9 (4 × MIC) nor vancomycin (4 × MIC) were able to produce a significant reduction
[9]; ATP-powered PMF generation
  EC50 for PMF collapse (corresponding mass concentration): 8 µg/mL
[9]; succinate/O2-powered PMF generation
  EC50 for PMF collapse (corresponding mass concentration): 9.5 µg/mL

## CCCC#Cc1ccc(-c2nc(C)c(/C(C)=N/NC(=N)N)s2)cc1 [Compound 10, 2-(1-(4-Methyl-2-(4-(pent-1-yn-1-yl)phenyl)thiazol-5-yl)ethylidene)hydrazine-1-carboximidamide]
[1]
  non-toxic up to (concentration): 32 µg/mL
[10]
  kill kinetics (in words): rapid bactericidal activity
[11]
  MIC: 0.5 µg/mL (≈ 1.47 µM)
[4]
  non-toxic to macrophage cells up to a concentration of: 16 µg/mL
[3]; 16 μg/mL
  reduction of the burden of intracellular MRSA: complete eradication

## CCCCCC#Cc1ccc(-c2nc(C)c(/C(C)=N/NC(=N)N)s2)cc1 [Compound 11, 2-(1-(2-(4-(Hep-1-yn-1-yl)phenyl)-4-methylthiazol-5-yl)ethylidene)hydraz-ine-1-carboximidamide]
[1]
  non-toxic up to (concentration): 32 µg/mL
[10]
  kill kinetics (in words): rapid bactericidal activity
[4]
  non-toxic to macrophage cells up to a concentration of: 16 µg/mL
[3]; 16 μg/mL
  reduction of the burden of intracellular MRSA: complete eradication

## CCCCCCC#Cc1ccc(-c2nc(C)c(/C(C)=N/NC(=N)N)s2)cc1 [Compound 12]
[1]
  non-toxic up to (concentration): 32 µg/mL

## C/C(=N\NC(=N)N)c1sc(-c2ccc(C#CC(C)(C)C)cc2)nc1C [Compound 13, 2-(1-(2-(4-(3,3-Dimethylbut-1-yn-1-yl)-phenyl)-4-methylthiazol-5-yl)ethylidene) hydrazine-1-carboximidamide]
[1]
  non-toxic up to (concentration): 32 µg/mL

## C/C(=N\NC1=NCCN1)c1sc(-c2ccc(C#CC3CC3)cc2)nc1C [Compound 19, 2-(4-(Cyclopropylethynyl)phenyl)-5-(1-(2-(4,5-dihydro-1H-imidazol-2-yl)hydrazono)ethyl)-4-methylthiazole]
[7]
  Notes (metabolic stability classification): Stable to metabolism

## C/C(=N\NC1=NCCN1)c1sc(-c2ccc(C#CC(C)(C)C)cc2)nc1C [Compound 23, 5-(1-(2-(4,5-Dihydro-1H-imidazol-2-yl)hydrazono)ethyl)-2-(4-(3,3-dimethylbut-1-yn-1-yl)phenyl)-4-methylthiazole]
[1]
  non-toxic up to (concentration): 32 µg/mL

## CN[C@H](CC(C)C)C(=O)N[C@H]1C(=O)N[C@@H](CC(N)=O)C(=O)N[C@H]2C(=O)N[C@H]3C(=O)N[C@H](C(=O)N[C@H](C(=O)O)c4cc(O)cc(O)c4-c4cc3ccc4O)[C@H](O)c3ccc(c(Cl)c3)Oc3cc2cc(c3O[C@@H]2O[C@H](CO)[C@@H](O)[C@H](O)[C@H]2O[C@H]2C[C@](C)(N)[C@H](O)[C@H](C)O2)Oc2ccc(cc2Cl)[C@H]1O [Vancomycin, reference compound]
[2]
  time to complete eradication of MRSA USA400: 24 h
